The text below walks through data of patent publication US11946094B2, “Combination therapies and methods of use thereof” (Augusta University Research Institute, Inc., priority 2017, dated 2024).

Counter-ions that a name gives are not always drawn.

The first assay relates to OVCAR-8 cells. In words: Drug-siRNA combination screen: 346-compound anticancer library at 100 nM, CCK-8 viability.
Conditions: not given
For the compound Maraviroc, the “Score (sum of observed SD values for 18 genes)” value came to 0.11 SD.

The same assay, now with this note: OVCAR-8; drug 100 nM plus siRNA knockdown of each of 18 genes; distance VAB−VA×VB in SD; single gene contributes at most +5 / −5; negative = synergy, positive = antagonism.
Turning to `O=C(O[C@@H]1Cc2c(O)cc(O)cc2O[C@@H]1c1cc(O)c(O)c(O)c1)c1cc(O)c(O)c(O)c1` [Epigallocatechin gallate], the “Score (sum of observed SD values for 18 genes)” value turned out to be 3.64 SD.

Take `CC(=O)Nc1nc(C)c(-c2ccc(Cl)c(S(=O)(=O)NCCO)c2)s1` [PIK-93]: the “Score (sum of observed SD values for 18 genes)” value is −20.62 SD. Still for that read-out and setting: in the case of `Cl.O=C1CN2Cc3c(ccc(Cl)c3Cl)N=C2N1` [Anagrelide HCI] it was −8.01 SD. The same measure, in the same setting: in the case of `COc1cc(OC)c(/C=C/S(=O)(=O)Cc2ccc(OC)c(NCC(=O)O)c2)c(OC)c1` [Rigosertib] it was 6.43 SD; in that of `CN1CCN(c2cccc(Nc3nc4c(-c5ccc(S(C)(=O)=O)cc5)cccn4n3)c2)CC1` [CEP33779], −27.66 SD; in that of `COc1cccc2c1C(=O)c1c(O)c3c(c(O)c1C2=O)C[C@@](O)(C(=O)CO)C[C@@H]3O[C@H]1C[C@H](N)[C@H](O)[C@H](C)O1` [Doxorubicin], 15.09 SD. Still for that read-out and setting: then `CCC1(c2ccc(N)cc2)CCC(=O)NC1=O` (stereo not shown) [Aminoglutethimide], with −9.32 SD; and `C#Cc1cccc(Nc2ncnc3cc(OC)c(OCCCCCCC(=O)NO)cc23)c1` [CUDC-101], with −46.83 SD. Take `C[C@H](NC(=O)Cc1cc(F)cc(F)c1)C(=O)N[C@@H]1C(=O)N(C)c2ccccc2-c2ccccc21` [0YO-1027]: the “Score (sum of observed SD values for 18 genes)” value was −38.72 SD. For the compound `Cn1c(=O)c(F)c(Nc2ccc(I)cc2F)c2c(=O)n(C[C@@H](O)CO)cnc21` [TAK-733], the “Score (sum of observed SD values for 18 genes)” value is −40.08 SD. The same measure, in the same setting: in the case of `O=C(O)c1ccc(-c2c[nH]c3ncc(-c4ccccc4)cc23)cc1C1CCCC1` [GSK650394] it was 12.12 SD; in that of `CCN1CCN(Cc2ccc(-c3cc4c(N[C@H](C)c5ccccc5)ncnc4[nH]3)cc2)CC1` [NVP-AEE788], −41.08 SD.

For the compound `COc1cc2c(N3CCN(C(=O)Nc4ccc(OC(C)C)cc4)CC3)ncnc2cc1OCCCN1CCCCC1` [Tandutinib], the “Score (sum of observed SD values for 18 genes)” value is −14.99 SD.

`CN(c1ncccc1CNc1nc(Nc2ccc3c(c2)CC(=O)N3)ncc1C(F)(F)F)S(C)(=O)=O` [PF - 562271]: the “Score (sum of observed SD values for 18 genes)” value was −17.41 SD.

As to `Cn1cc(-c2ccc3nnc(Sc4ccc5ncccc5c4)n3n2)cn1` [SGX-523], the “Score (sum of observed SD values for 18 genes)” value was −8.5 SD.

As for `COC(=O)Nc1nc2ccc(C(=O)c3cccs3)cc2[nH]1` [Nocodazole], the “Score (sum of observed SD values for 18 genes)” value is −7.78 SD.

In the case of `CC(c1cc2ccccc2s1)N(O)C(N)=O` (stereo not shown) [Zileuton], the “Score (sum of observed SD values for 18 genes)” value was −19.64 SD. Take `CN(C)CCOc1ccc(/C(=C(/CCCl)c2ccccc2)c2ccccc2)cc1` [Toremifene Citrate]: the “Score (sum of observed SD values for 18 genes)” value was −22.88 SD. The same measure, in the same setting: then `Cc1nc(N)sc1-c1ccnc(Nc2ccc(N3CCOCC3)cc2)n1` [CYC116], with −28.81 SD; and `CC(C)(C)c1cnc(CSc2cnc(NC(=O)C3CCNCC3)s2)o1` [SNS-032], with -62.71 SD; and `N.N.O=C([O-])C1(C(=O)[O-])CCC1.[Pt+2]` [Carboplatin], with −24.62 SD. On to `CNC(=O)c1cc(COc2nnc(Nc3ccc(Cl)cc3)c3ccoc23)ccn1` [Telatinib], for which the “Score (sum of observed SD values for 18 genes)” value is on record as −5.24 SD. On the same count and under the same terms, then `CN1CC[C@H](c2c(O)cc(O)c3c(=O)cc(-c4ccccc4Cl)oc23)[C@H](O)C1` [Flavopiridol], with −23.63 SD.

With `Cc1[nH]c(/C=C2\C(=O)Nc3ccc(S(=O)(=O)Cc4c(Cl)cccc4Cl)cc32)c(C)c1C(=O)N1CCC[C@@H]1CN1CCCC1` [PHA-665752], the “Score (sum of observed SD values for 18 genes)” value was −13.95 SD.

Regarding `NC(=O)c1ccc(-c2nc(-c3ccccn3)c(-c3ccc4c(c3)OCO4)[nH]2)cc1` [SB 431542], the “Score (sum of observed SD values for 18 genes)” value is recorded as −30.82 SD. On the same count and under the same terms, in the case of `Nc1cc(C(F)(F)F)c(-c2cc(N3CCOCC3)nc(N3CCOCC3)n2)cn1` [Buparlisib] it was 8.79 SD; in that of `CC(C)c1onc(-c2c(Cl)cccc2Cl)c1COc1ccc(/C=C/c2cccc(C(=O)O)c2)c(Cl)c1` [GW4064], −12.2 SD; in that of `CCNC(=O)c1noc(-c2cc(C(C)C)c(O)cc2O)c1-c1ccc(CN2CCOCC2)cc1` [AUY922], 8.46 SD.

Consider `NC(=O)C1CCCc2c1[nH]c1ccc(Cl)cc21` (stereo not shown) [EX 527], for which the “Score (sum of observed SD values for 18 genes)” value is −22.45 SD.

As for `O=C(O)c1nn(Cc2ccc(Cl)cc2Cl)c2ccccc12` [Lonidamine], the “Score (sum of observed SD values for 18 genes)” value is −16.85 SD. In the case of `CCC(C)n1ncn(-c2ccc(N3CCN(c4ccc(OCC5COC(Cn6cncn6)(c6ccc(Cl)cc6Cl)O5)cc4)CC3)cc2)c1=O` (stereo not shown) [Itraconazole], the “Score (sum of observed SD values for 18 genes)” value is listed as −13.51 SD. Same read-out and setting: in the case of `Cc1cccc(-c2nn3c(c2-c2ccnc4ccc(C(N)=O)cc24)CCC3)n1` [LY2157299] it was −0.82 SD; in that of `Cc1ccc(-n2nc(C(C)(C)C)cc2NC(=O)Nc2ccc(OCCN3CCOCC3)c3ccccc23)cc1` [Doramapimod], -50.99 SD; in that of `CN1CCN(CCOc2cc(OC3CCOCC3)c3c(Nc4c(Cl)ccc5c4OCO5)ncnc3c2)CC1` [Saracatinib], -53.14 SD. Same read-out and setting: then `Cn1cc(C2=C(c3ccc(Cl)cc3Cl)C(=O)NC2=O)c2ccccc21` [SB216763], with −11.62 SD; and SNS-314 Mesylate, with −1.05 SD; and `C[C@@H](O[C@H]1OCCN(Cc2n[nH]c(=O)[nH]2)[C@H]1c1ccc(F)cc1)c1cc(C(F)(F)F)cc(C(F)(F)F)c1` [Aprepitant], with −23.29 SD. Consider `C=CC(=O)N1CCC[C@@H](n2nc(-c3ccc(Oc4ccccc4)cc3)c3c(N)ncnc32)C1` [Ibrutinib], for which the “Score (sum of observed SD values for 18 genes)” value was -58.62 SD. In the case of `O=c1cc(N2CCOCC2)oc2c(-c3cccc4c3sc3ccccc34)cccc12` [NU7441], the “Score (sum of observed SD values for 18 genes)” value is listed as −10.42 SD. Same read-out and setting: then `Cc1ccc([C@@H]2O[C@H](CO)[C@@H](O)[C@H](O)[C@H]2O)cc1Cc1ccc(-c2ccc(F)cc2)s1` [Canagliflozin], with −25.46 SD; and `NC(=O)c1ccc(I)c([N+](=O)[O-])c1` [Iniparib], with −21.58 SD.

`O=c1cc(N2CCOCC2)oc2c(-c3ccccc3)cccc12` [LY294002]: the “Score (sum of observed SD values for 18 genes)” value is recorded as −8.41 SD. For `Nc1cccc2c1C(=O)N(C1CCC(=O)NC1=O)C2=O` (stereo not shown) [Pomalidomide], the “Score (sum of observed SD values for 18 genes)” value was −3.4 SD. Same read-out and setting: then `NCCC(O)(P(=O)(O)O)P(=O)(O)O` [Pamidronate Disodium], with −2.39 SD.

The same assay, now with this note: OVCAR-8; drug 100 nM; panel of 18 siRNA knockdowns.
For `C#Cc1cccc(Nc2ncnc3cc(OC)c(OCCCCCCC(=O)NO)cc23)c1` [CUDC-101], the “synergy / antagonism of drug with gene knockdowns, in words” value is given as “mostly synergistic”. `CC(C)(C)c1cnc(CSc2cnc(NC(=O)C3CCNCC3)s2)o1` [SNS-032]: the “synergy / antagonism of drug with gene knockdowns, in words” value is “strong synergies with multiple genes”.

Still in this assay, the particulars now being: OVCAR-8; drug 100 nM; siRNA knockdown.
For the compound `C#Cc1cccc(Nc2ncnc3cc(OC)c(OCCCCCCC(=O)NO)cc23)c1` [CUDC-101], the “number of genes (of 18) whose knockdown synergizes with the drug” value worked out at 11 genes. Same read-out and setting: then `Cc1ccc(-n2nc(C(C)(C)C)cc2NC(=O)Nc2ccc(OCCN3CCOCC3)c3ccccc23)cc1` [Doramapimod], with 11 genes.
